Data taken from PubChem BioAssay (NCI).
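Interpolation was linear, between the two tested concentrations surrounding the appropriate level; five concentrations were tested over 48 hours in 96-well plates. The concentration for 50% growth inhibition is given as GI50. TGI: concentration producing complete growth inhibition.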

Legend:
Experiment in all cases: NCI anticancer screen, dose series, 48 h
SW-620 colon = system: SW-620 colon
K-562 leukemia = system: K-562 leukemia
LOX IMVI melanoma = system: LOX IMVI melanoma
OVCAR-8 ovarian = system: OVCAR-8 ovarian
RPMI-8226 leukemia = system: RPMI-8226 leukemia
HCT-15 colon = system: HCT-15 colon
MOLT-4 leukemia = system: MOLT-4 leukemia
A549 NSCLC = system: A549 NSCLC
CAKI-1 renal = system: CAKI-1 renal
SK-MEL-5 melanoma = system: SK-MEL-5 melanoma

Row | Structure (SMILES) | TGI (SW-620 colon) [µM] | TGI (K-562 leukemia) [µM] | TGI (LOX IMVI melanoma) [µM] | TGI (OVCAR-8 ovarian) [µM] | TGI (RPMI-8226 leukemia) [µM] | TGI (HCT-15 colon) [µM] | TGI (MOLT-4 leukemia) [µM] | TGI (A549 NSCLC) [µM] | TGI (CAKI-1 renal) [µM] | TGI (SK-MEL-5 melanoma) [µM] | GI50 (SW-620 colon) [µM] | GI50 (K-562 leukemia) [µM] | GI50 (LOX IMVI melanoma) [µM] | GI50 (OVCAR-8 ovarian) [µM] | GI50 (RPMI-8226 leukemia) [µM] | GI50 (HCT-15 colon) [µM] | GI50 (MOLT-4 leukemia) [µM] | GI50 (A549 NSCLC) [µM] | GI50 (CAKI-1 renal) [µM] | GI50 (SK-MEL-5 melanoma) [µM]
1 | O=C(O)C(CO)NC(=O)C1C(C(=O)O)C(c2ccccc2[N+](=O)[O-])C=C(c2ccco2)N1c1ccncc1 (stereo not drawn) | 3.79 | 5.74 | 3.42 | 31 | 4.22 | 4.39 | > 22.5 | 11.1 | 24.3 | 10.2 |  |  |  |  |  |  |  |  |  | 
2 | CCOC(=O)/C=C1/Nc2cc(F)c(F)cc2NC1=O | > 100 | > 100 | > 100 | > 100 | > 100 | > 100 | > 100 | > 100 | > 100 | > 100 |  |  |  |  |  |  |  |  |  | 
3 | Cc1oc2c(C)c3oc(=O)cc(C)c3cc2c1CN | > 100 | > 100 | 41.9 | > 100 | > 100 | > 100 | > 100 | > 100 |  |  |  |  |  |  |  |  |  |  |  | 
4 | CC(C)C(/C=C/c1ccccc1)=N\NC(=S)NN | > 100 | > 100 | > 100 | > 100 | > 100 | > 100 | > 100 | > 100 | > 100 | > 100 |  |  |  |  |  |  |  |  |  | 
5 | CC(C)(C)c1cc(C2NC(=O)NC2=O)cc(C(C)(C)C)c1O (stereo not drawn) | > 100 | > 100 | > 100 | > 100 | > 100 | > 100 | > 100 | > 100 | > 100 |  |  |  |  |  |  |  |  |  |  | 
6 | O=C1/C(=C2\SCC(=O)N2c2ccccc2)SC(=S)N1c1ccccc1 | > 100 | > 100 | > 100 | > 100 | > 100 | > 100 | 51.7 | > 100 | 57.1 | > 100 |  |  |  |  |  |  |  |  |  | 
7 | C=C1[C@H](OCC(C)C)[C@@H](OC(=O)C(C)CC)[C@@H](O)C(C)(C)/C=C/[C@H](C)C(=O)[C@@]2(O)C[C@H](C)[C@H](O)[C@@H]2[C@H]1OC(=O)C(C)CC (stereo partly drawn) | > 20 | > 13.5 | > 13.3 | > 20 | 12 | > 20 | > 10.3 | > 20 | > 18.7 | > 10.8 |  |  |  |  |  |  |  |  |  | 
8 | CC1=CC(=O)/C(=C/N2CCNC2=S)C(=O)O1 | > 100 | > 100 | > 100 | > 100 | > 100 | > 100 | > 100 | > 100 | > 100 | > 100 |  |  |  |  |  |  |  |  |  | 
9 | COC1CCC(n2c([C@@H]3CCCC(=O)N3c3ccc(F)c(F)c3)nc3cc(-c4c(C)noc4C)ccc32)CC1 (stereo partly drawn) | > 100 | > 100 | 16.9 | 40.8 | 8.21 | 38.3 | 72.2 | 69.5 | 12.7 | 18.6 | 19.1 | 2.8 | 4.13 | 10.2 | 0.703 | 4.73 | 16.9 | 11.8 | 0.64 | 5.81
10 | C1=C[C@]2(CCC13OCCO3)COc1ccccc12 | > 100 | > 100 | 59 | > 100 | > 100 | > 100 | > 100 | > 100 | > 100 | > 100 |  |  |  |  |  |  |  |  |  | 
11 | C/C(=N\NC(=O)N/N=C(\C)c1ccccn1)c1ccccn1 | > 100 |  | > 100 | > 100 | > 100 | > 100 | > 100 | > 100 | > 100 | > 47.3 |  |  |  |  |  |  |  |  |  | 
12 | NC(=S)N/N=C(\C(=O)Nc1ccc(Cl)c(Cl)c1)C1=NN(c2ccccc2)C(c2cccc([N+](=O)[O-])c2)CC1=O (stereo not drawn) | 35.5 | 65.5 | 30.8 | > 100 | 14.4 | > 100 | 70.9 | > 100 | > 100 | > 100 |  |  |  |  |  |  |  |  |  | 
13 | Cc1ccc(C2(c3ccc(C)c(O)c3C)CCN(C)CC2)c(C)c1O | > 100 | > 100 | > 100 | > 100 | > 100 | > 100 | > 100 | > 100 | > 100 | > 100 |  |  |  |  |  |  |  |  |  | 
14 | C/C(NC(=O)c1ccccc1)=C(/C(=O)c1ccccc1)[C@@H]1OC(C)(C)O[C@@H]1[C@H]1COC(C)(C)O1 | 55.1 | 52.8 | 45.5 | > 100 | 47.7 | > 100 | 37.2 | > 100 | > 100 | 35.6 |  |  |  |  |  |  |  |  |  | 
15 | O=[N+]([O-])c1ccc(Cl)cc1N/N=C/c1cccs1 | > 100 | > 100 |  | > 100 | > 100 | > 100 | > 100 | > 100 | > 100 | > 100 |  |  |  |  |  |  |  |  |  | 
16 | Cn1c(=O)c2[nH]c(-n3nc(-c4ccccc4)cc3N)nc2n(C)c1=O |  | > 100 |  | 97.7 | > 100 | > 100 | > 100 | > 100 | 15 | 61.9 |  |  |  |  |  |  |  |  |  | 
17 | O=c1c(S(=O)(=O)Oc2ccccc2)coc2cc(F)ccc12 | > 100 | > 100 | > 100 | > 100 |  | > 100 | > 100 | > 100 | > 100 | > 100 |  |  |  |  |  |  |  |  |  | 
18 | CCc1cc2c(oc3c4ccccc4ccc23)c(=O)[nH]1 | > 10 | > 10 | > 10 | > 10 |  |  | > 10 | > 10 |  |  |  |  |  |  |  |  |  |  |  | 
19 | S=C1CSc2c(cnc3ccccc23)N1 |  | > 100 | > 100 | > 100 | > 100 | > 100 | > 100 | > 100 | > 100 | > 100 |  |  |  |  |  |  |  |  |  | 
20 | COc1cc(C(CC(OC)OC)=C(C#N)C#N)cc(OC)c1OC | > 100 |  | 25.1 | 73 |  | > 100 | 33.9 | > 100 | > 100 | 49.2 |  |  |  |  |  |  |  |  |  | 
21 | COc1ccc(N2C(=O)C3c4[nH]c5ccccc5c4C4CCC(C(C)(C)C)CC4C3C2=O)cc1OC (stereo not drawn) | 72 | 84.5 |  | 33.9 | 61.5 | > 100 | 43.9 | 32.6 |  | > 100 |  |  |  |  |  |  |  |  |  | 
